The results in this text go back to ChEMBL document CHEMBL4265968, “Efficient analoging around ethionamide to explore thioamides bioactivation pathways triggered by boosters in Mycobacterium tuberculosis” (Eur J Med Chem, 2018).

Series [1] has as its system Mycobacterium tuberculosis. Briefly: Antimycobacterial activity against GFP expressing Mycobacterium tuberculosis H37Rv after 7 days by fluorescence assay. As to conditions: 168 h. It is filed as functional.
Series [2] concerns Mycobacterium tuberculosis. Briefly: Antimycobacterial activity against GFP expressing Mycobacterium tuberculosis H37Rv after 7 days in presence of EthR inhibitor BDM41906 by fluorescence assay. The format is functional. As to conditions: 168 h.
Series [3] has as its system Mycobacterium tuberculosis. Kind of series: Antimycobacterial activity against GFP expressing Mycobacterium tuberculosis H37Rv after 7 days in presence of EthR2 inhibitor SMARt-420 by fluorescence assay. As to conditions: 168 h. The format is functional.
Series [4] deals with Mycobacterium tuberculosis. Kind of series: Ratio of MIC50 for GFP expressing Mycobacterium tuberculosis H37Rv in absence of EthR inhibitor BDM41906 to MIC50 for GFP expressing Mycobacterium tuberculosis H37Rv in presence of EthR inhibitor BDM41906. It is filed as functional.
Series [5] concerns Mycobacterium tuberculosis. Briefly: Ratio of MIC50 for GFP expressing Mycobacterium tuberculosis H37Rv in absence of EthR2 inhibitor SMARt-420 to MIC50 for GFP expressing Mycobacterium tuberculosis H37Rv in presence of EthR2 inhibitor SMARt-420. It is filed as functional.
A short description of series [6]: Electrochemical behavior of the compound assessed as redox potential corrected toward normal hydrogen electrode at 10^-3 M by cyclic voltammetry. The format is physicochemical. As to conditions: 1000 µM.

Values after ≈ are worked out from the molar mass of the structure shown.

Regarding `CCCCc1cc(C(N)=S)ccn1`, the MIC50 – broadly, an inhibitory concentration at the 50% level, which refers to growth in some studies and to a panel of isolates in others – in series [1] was 5.8 µM (≈ 1.13 µg/mL); in series [2], 0.6 µM; in series [3] it was 0.4 µM. In addition, the results for the Ratio in series [4] and in series [5] were 10 and 15, respectively. Further, the Activity in series [6] is 1.39 V.

As for `CCOC(=O)CCc1cc(C(N)=S)ccn1`, the figures for the MIC50 in series [1], in series [2] and in series [3] were above 30 µM, 3.8 µM and 1.3 µM, respectively. For the same molecule, the Ratio is listed as above 8 in series [4] and above 23 in series [5].

Consider `CCC(C)c1cc(C(N)=S)ccn1` (centres undefined), for which the MIC50 in series [1] stood at 30 µM (≈ 5.83 µg/mL); in series [2], 0.2 µM; in series [3], 0.2 µM. Moreover, the Ratio in series [4] and in series [5] was 150 each time. Further, the Activity in series [6] is on record as 1.48 V.

As for `NC(=S)c1ccnc(C2CC2)c1`, the MIC50 turned out to be 6.6 µM (≈ 1.18 µg/mL) in series [1], 1 µM in series [2] and 0.5 µM in series [3]. For the same molecule, the values for the Ratio in series [4] and in series [5] were 7 and 13, respectively. The Activity in series [6] is reported as 1.4 V.

For the molecule `NC(=S)c1ccnc(C2(C(F)(F)F)CC2)c1`, the MIC50 in series [1] is above 30 µM; in series [2] it was 10 µM; in series [3], 10 µM. The Ratio in series [4] and in series [5] was above 3 in each case. The Activity in series [6] worked out at 1.65 V.

Regarding `NC(=S)c1ccnc(Cc2cccc(F)c2)c1`, the MIC50 in series [1] is 0.6 µM (≈ 0.148 µg/mL); in series [2] it was 0.1 µM; in series [3], 0.1 µM. For the same molecule, the Ratio in series [4] and in series [5] was 6 in each case.

On to `N#Cc1cccc(Cc2cc(C(N)=S)ccn2)c1`, for which the MIC50 stood at 0.5 µM (≈ 0.127 µg/mL) in series [1], 0.1 µM in series [2] and 0.1 µM in series [3]. Besides, the Ratio in series [4] and in series [5] was 5 each time.

Regarding `NC(=S)c1ccnc(CC(F)(F)F)c1`, the values for the MIC50 in series [1], in series [2] and in series [3] were above 30 µM, 10 µM and 1.5 µM, respectively. Further, the values for the Ratio in series [4] and in series [5] were above 3 and above 20, respectively. The Activity in series [6] worked out at 1.55 V.

As for `NC(=S)c1ccnc(CC2CCCCC2)c1`, the figures for the MIC50 in series [1], in series [2] and in series [3] were above 30 µM, 0.6 µM and 0.7 µM, respectively. Further, the results for the Ratio in series [4] and in series [5] were above 50 and above 43, respectively. Further, the Activity in series [6] amounted to 1.62 V.

On to `NC(=S)c1ccnc(Cc2ccccc2)c1`, for which the values for the MIC50 in series [1], in series [2] and in series [3] were 1.1 µM (≈ 0.251 µg/mL), 0.1 µM and 0.1 µM, respectively. For the same molecule, the Ratio in series [4] and in series [5] was 11 throughout.

As for `CC(c1ccccc1)c1cc(C(N)=S)ccn1` (centres undefined), the MIC50 in series [1] is above 30 µM; in series [2], 0.6 µM; in series [3] it was 0.7 µM. The Ratio was above 50 in series [4] and above 43 in series [5].

Turning to `COc1ccc(Cc2cc(C(N)=S)ccn2)cc1`, the MIC50 was determined as 2.4 µM (≈ 0.62 µg/mL) in series [1], 0.3 µM in series [2] and 0.2 µM in series [3]. Besides, the Ratio was 8 in series [4] and 12 in series [5].

With `CC(C)CCc1cc(C(N)=S)ccn1`, the MIC50 in series [1] came to 6.6 µM (≈ 1.37 µg/mL); in series [2] it was 0.1 µM; in series [3], 0.1 µM. For the same molecule, the Ratio in series [4] and in series [5] was 52 each time. For the same molecule, in series [6], the Activity was found to be 1.63 V.

Take `CCc1cc(/C(N)=[S+]/[O-])ccn1`: the MIC50 in series [1] came out at 10 µM (≈ 1.82 µg/mL); in series [2], 0.4 µM; in series [3] it was 0.3 µM. The Ratio in series [4] came out at 25; in series [5], 33.

As for `CC(C)c1cc(C(N)=S)ccn1`, the MIC50 in series [1] worked out at 21 µM (≈ 3.79 µg/mL); in series [2] it was 0.1 µM; in series [3], 0.2 µM. In addition, the Ratio is 210 in series [4] and 105 in series [5]. Besides, in series [6], the Activity worked out at 1.62 V.

As to `CC(C)Cc1cc(C(N)=S)ccn1`, the MIC50 was above 30 µM in series [1], 9.1 µM in series [2] and 3.8 µM in series [3]. Besides, the Ratio in series [4] is reported as above 3; in series [5] it was above 8. Besides, the Activity in series [6] stood at 1.57 V.

For the molecule `CCCCc1cc(C(N)=O)ccn1`, the MIC50 in series [1], in series [2] and in series [3] was above 30 µM throughout.

Take `NC(=S)c1ccnc(Cc2ccc(F)cc2)c1`: the figures for the MIC50 in series [1], in series [2] and in series [3] were 1 µM (≈ 0.246 µg/mL), 0.2 µM and 0.1 µM, respectively. For the same molecule, the Ratio in series [4] amounted to 5; in series [5], 10.

`CCCc1cc(C(N)=S)ccn1` [PROTIONAMIDE]: the MIC50 was 13 µM (≈ 2.34 µg/mL) in series [1], 0.9 µM in series [2] and 0.5 µM in series [3]. Also, the Ratio turned out to be 14 in series [4] and 26 in series [5]. The Activity in series [6] was 1.43 V.

For the molecule `CCc1cc(C(N)=S)ccn1` [ETHIONAMIDE], the MIC50 in series [1] came to 19 µM (≈ 3.16 µg/mL); in series [2], 2 µM; in series [3], 0.9 µM. The figures for the Ratio in series [4] and in series [5] were 10 and 21, respectively. The Activity in series [6] came out at 1.46 V.
